According to patent publication US20020183366A1, “Cyclooxygenase-2 inhibitors, compositions and methods of use” (priority 2001, published 2002):

How the values were obtained:
[1] = biological target: T1, ovine COX-1 (Ovis aries, UniProt P05979); assay: COX Inhibitor Screening Assay, COX-1 activity; format: biochemical; conditions: 100 μM test compound
T1 construct: purchased Cayman Chemical, Ann Arbor, Mich
T1 sequence (P05979 25-600): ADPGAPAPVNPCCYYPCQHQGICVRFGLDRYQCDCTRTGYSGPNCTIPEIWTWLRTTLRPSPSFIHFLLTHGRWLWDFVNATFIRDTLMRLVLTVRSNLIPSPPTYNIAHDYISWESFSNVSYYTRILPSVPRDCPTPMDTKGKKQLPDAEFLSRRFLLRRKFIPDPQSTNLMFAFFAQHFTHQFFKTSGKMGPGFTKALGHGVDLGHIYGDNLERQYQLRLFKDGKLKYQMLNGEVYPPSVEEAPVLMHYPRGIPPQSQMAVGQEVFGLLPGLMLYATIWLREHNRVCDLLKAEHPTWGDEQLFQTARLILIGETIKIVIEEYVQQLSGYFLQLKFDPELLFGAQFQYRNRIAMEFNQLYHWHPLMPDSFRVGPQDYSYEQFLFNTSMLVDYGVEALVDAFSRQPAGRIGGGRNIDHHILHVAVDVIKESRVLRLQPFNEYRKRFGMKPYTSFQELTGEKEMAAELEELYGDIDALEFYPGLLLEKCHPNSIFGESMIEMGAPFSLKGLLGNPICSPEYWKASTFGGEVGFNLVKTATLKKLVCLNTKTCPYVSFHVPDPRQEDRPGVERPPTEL
Protocol: (§1) The ovine COX-1 and human CO-2 activities and the measurement of the prostaglandin products synthesized were performed using the COX Inhibitor Screening Assay (Cayman Chemical, Ann Arbor, Mich., which also contained the Prostaglandin Screening EIA Kit, used for prostaglandin quantification). The test compounds were dissolved at 50 times the highest final reaction concentration in DMSO or any other suitable solvent as stock solutions. These stock solutions were then diluted in the same solvent. Eight glass test tubes (13×100 mm) were placed in a 37° C. water bath. To each test tube was added 950 μL of reaction buffer (0.1 M Tris-HCl, pH 8.0, containing 5 mM EDTA, and 2 mM phenol), 10 μL of 100 µM heme solution, and 10 μL (5 units) of either ovine COX-1 or human COX-2 and the resulting mixture was incubated with the enzyme for 2 minutes. Twenty μL of the solvent was added to one tube (100% initial activity or solvent control) and 20 μL of each dilution of the test compound was added to one tube each. Each tube was vortexed immediately after the addition. The enzyme was incubated with the inhibitor for 3.5 minutes at 37° C. The enzymatic reaction was then initiated by the addition of 10 μL of freshly prepared 10 mM arachidonic acid (neutralized with KOH), vortexed and then incubated for 2 minutes at 37° C. […]

[2] = biological target: T2, human COX-2 (Homo sapiens, UniProt P35354); assay: COX Inhibitor Screening Assay, COX-2 activity; format: biochemical
T2 construct: purchased Cayman Chemical, Ann Arbor, Mich
T2 sequence (P35354 18-604): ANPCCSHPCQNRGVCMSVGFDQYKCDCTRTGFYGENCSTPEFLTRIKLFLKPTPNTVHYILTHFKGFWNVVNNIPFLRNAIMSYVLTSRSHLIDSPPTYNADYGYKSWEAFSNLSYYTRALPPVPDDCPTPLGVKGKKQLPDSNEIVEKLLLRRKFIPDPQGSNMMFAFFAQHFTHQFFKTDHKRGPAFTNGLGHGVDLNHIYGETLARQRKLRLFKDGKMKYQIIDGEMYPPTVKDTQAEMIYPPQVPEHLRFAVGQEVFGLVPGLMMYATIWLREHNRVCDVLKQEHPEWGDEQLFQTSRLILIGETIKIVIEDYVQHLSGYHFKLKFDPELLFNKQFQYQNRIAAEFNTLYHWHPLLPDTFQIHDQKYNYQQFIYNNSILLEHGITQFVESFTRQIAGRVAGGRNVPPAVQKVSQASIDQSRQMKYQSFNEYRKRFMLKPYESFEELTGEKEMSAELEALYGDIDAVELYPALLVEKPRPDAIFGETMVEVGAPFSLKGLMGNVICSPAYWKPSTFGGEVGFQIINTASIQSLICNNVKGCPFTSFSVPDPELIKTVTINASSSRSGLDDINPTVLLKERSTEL
Protocol: as §1

O=C1OCC(c2ccc(S(=O)(=O)CF)cc2)=C1c1ccccc1 [Example 1, 4-(4-((Fluoromethyl)sulfonyl)phenyl)-3-phenyl-5-hydrofuran-2-one]
COX-1 Inhibition (% at 100 μM) [1]: 30% | COX-2 Inhibition (% at 10 μM) ([2]; 10 μM test compound, human COX-2): 40% | COX-2 selectivity ([2]; COX-2 versus COX-1, from Table 1): has COX-2 selectivity
